Data on one substance can be found in patent US20210285004A1, “Bidirectional Constitutive Promoter and Uses, and Transfection Methods for B. Microti” (MJKS Research LLC, priority 2020, published 2021).

Data set [1] has as its system B. microti. The data set can be described thus: Promoter strength comparison by reporter gene analysis (RLU, luminometer). In kind it is cell-based, Babesia microti. Conditions: reporter gene construct, FIG. 5. On the procedure:
In FIG. 5, the improved strength of the Babesia promoter (here: B. microti or “BM”) compared to a strong constitutive promoter (here: PBANKA DHFR of SEQ ID NO:2) is shown.
The strength of a Babesia-based promoter (for example, without limitation, the BM-CTQ41297 promoter of SEQ ID NO:1) and that of a strong constitutive promoter (here: PBANKA DHFR, SEQ ID NO:2) are determined and compared, representative results are shown in FIG. 5. A promoter (SEQ ID NO:1, from B. microti or “BM”) is compared to PBANKA-DHFR (known to be a strong constitutive promoter), a blank/negative control, and, as a further negative control, human EF1b promoter. The promoter constructs are prepared as described in examples 1 and 4, respectively. Relative Light Units (RLU) are measured by luminometer. […] Similarly the constitutive promoter human EF1b is outperformed by a Babesia-based promoter, including e.g. by the B. microti promoter (as shown in FIG. 5). As determined by reporter gene analysis, the Babesia promoter is at least about 5 to 6 times stronger compared to PBANKA-DHFR (a promoter derived from a rodent malaria parasite Plasmodium berghei with strong constitutive activity commonly used for the expression of reporter genes in various apicomplexan parasites), see results shown in FIG. 5.
(In a reporter assay the amount or activity of a reporter protein is the signal.)

In data set [2] the test system is B. microti. The data set can be described thus: Transient transfection of B. microti with promoter constructs, reporter expression by fluorescence microscopy. In kind it is cell-based, Babesia microti. Conditions: two days after transfection, infected RBC from C57BL/6J mice. The protocol: A transfection of parasites with a parasite promoter (here: B. microti & SEQ ID NO:1) is performed as follows. A schematic representation of the genomic location of the B. microti promoter of SEQ ID NO:1 (BM-CTQ41297 promoter) is shown in FIG. 1a. As shown in the figure, the promoter is flanked by the two different genes. The episomal constructs may be based on a standard cloning vector such as Bluescript (pBSK (+)) and modified for expression accordingly; the constructs used are shown schematically in FIG. 1b. As a negative control (B), B. microti parasites transfected with a blank vector without reporter gene insert (but with BM-CTQ41297 promoter and 3′UTR, compare SEQ ID NO: 35). […] Electroporation for both genes is performed as follows. […]
After electroporation, the parasites are immediately injected into C57BL/6J mice and after two days of transfection analyzed by fluorescence microscopy as follows: a drop of blood is collected in a 1.5 ml tube containing heparin from the tail of mice infected with transfected parasites. […] The transfected parasites are analyzed by fluorescence microscopy to check if transfected parasites express the reporter gene (here: GFP) using a fluorescence microscope, e.g. Axio Imager M2®, Zeiss®, Dublin, Calif.). The transfected parasites are reporter gene (e.g. here: GFP) positive as confirmed by fluorescence microscopy and shown in FIG. 1c, see C. […]

In the case of “PBANKA-DHFR: Strong constitutive DHFR promoter from Plasmodium berghei, SEQ ID NO:2, 2262 bp [reference compound]”, the “RLU (Relative Light Unit) values” in data set [1] is on record as “about 60 RLU”. For the same substance, the “reporter gene expression (GFP/mCherry fluorescence)” value in data set [2] is given as “expression of GFP”.
